One series addresses T1, Gal-4 hPPARβ/δ (Homo sapiens, UniProt Q03181).
T1 construct: Plasmids pGal4-hPPARα, pGal4-hPPARγ, pGal4-hPPARδ and pG5-TK-pGL3 were constructed as previously described by Staels, Bart, et al., Nature 1998 Jun; 25
T1 sequence (Q03181 171-441 limits assumed): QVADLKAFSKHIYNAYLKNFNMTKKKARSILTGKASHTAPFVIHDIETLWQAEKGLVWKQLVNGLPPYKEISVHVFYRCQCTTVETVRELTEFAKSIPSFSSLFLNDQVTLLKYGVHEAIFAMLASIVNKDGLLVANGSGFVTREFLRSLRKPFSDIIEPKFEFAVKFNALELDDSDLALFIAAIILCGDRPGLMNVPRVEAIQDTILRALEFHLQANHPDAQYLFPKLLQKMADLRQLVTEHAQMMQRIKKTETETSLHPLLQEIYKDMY
Put plainly: Gal4-hPPARδ transient transfection reporter assay in Cos cells. It is filed as cell-based. As to conditions: luciferase reporter, 24 hours with compound, scale 1-5, read-out: Gal-4 hPPAR β/δ EC50 (scaled number). A digest of the protocol: (§1)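 Cos cells transiently co-transfected with Gal4-hPPAR expression plasmid, pG5-TK-pGL3 luciferase reporter and β-galactosidase control, then treated 24 h with increasing compound concentrations in DMEM containing 0.2% FCS. Luciferase normalised to β-galactosidase; EC50 from curve fit, at least three experiments.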
(In general: Reporter assays use an easily measured gene product as a stand-in for the process of interest.)

The test system of another series is pig liver esterase. Put plainly: Metabolism studies using pig liver esterase. It is filed as in vitro ADME. The note with it: 37° C. As to the method:
The esterase-mediated metabolism of these compounds was studied using commercially available pig liver esterase in the presence and absence of human plasma proteins. The disappearance of parent was monitored over the time course of the incubations using a LC-UV detection system.
A stock solution and working stock solution was prepared for each proprietary compound as described for the human liver microsomal incubations. Working solutions of pig liver esterase in potassium phosphate buffer ([…], pH 7.4) and pig liver esterase in human plasma protein were prepared by dissolving pig liver esterase (2.51 mg) in the phosphate buffer or plasma protein solutions, respectively.
A set of three Eppendorf microfuge tubes (1.5 mL) was appropriately labeled. To each tube was added 1.5 mL of phosphate buffer, pig liver esterase in buffer, or pig liver esterase in human plasma protein solution. These solutions were pre-incubated (37° C., 900 rpm) and the reactions were initiated by adding an aliquot (37.5 μL) of the working solution of proprietary compound to each tube. An aliquot (100 μL) from each tube was removed at time 0, 5, 30, 60, and 120 min and added to a tube containing acetonitrile (200 μL) to stop the reaction.
The samples were centrifuged at 14000 g for 15 minutes at 4° C. The supernatant was transferred to clean labeled HPLC injection vials and stored at −80° C. until analyzed. An aliquot of the supernatant (25 μL) was injected onto the LC-UV system for analysis.
Half lives of a sample of test articles is noted in the following table. Half life was determined in the presence or absence of plasma.

The target in a further series is T2, Gal-4 hPPARα (Homo sapiens, UniProt Q07869).
T2 construct: Plasmids pGal4-hPPARα, pGal4-hPPARγ, pGal4-hPPARδ and pG5-TK-pGL3 were constructed as previously described by Staels, Bart, et al., Nature 1998 Jun; 25
T2 sequence (Q07869 200-468 limits assumed): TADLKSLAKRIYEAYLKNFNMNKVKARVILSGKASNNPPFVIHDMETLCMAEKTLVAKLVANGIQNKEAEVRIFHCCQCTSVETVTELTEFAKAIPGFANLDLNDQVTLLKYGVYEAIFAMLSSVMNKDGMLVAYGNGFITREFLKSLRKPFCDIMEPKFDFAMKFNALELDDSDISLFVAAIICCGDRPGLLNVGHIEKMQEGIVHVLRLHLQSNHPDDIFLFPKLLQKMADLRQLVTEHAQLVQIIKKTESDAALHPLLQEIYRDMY
The series can be described thus: Gal4-hPPARα transient transfection reporter assay in Cos cells. In kind it is cell-based. The note with it: luciferase reporter, 24 hours with compound, scale 1-5, read-out: Gal-4 hPPAR α EC50 (scaled number). A digest of the protocol: as §1

A further series addresses T3, Gal-4 hPPARγ (Homo sapiens, UniProt P37231).
T3 construct: Plasmids pGal4-hPPARα, pGal4-hPPARγ, pGal4-hPPARδ and pG5-TK-pGL3 were constructed as previously described by Staels, Bart, et al., Nature 1998 Jun; 25
T3 sequence (P37231 238-505 limits assumed): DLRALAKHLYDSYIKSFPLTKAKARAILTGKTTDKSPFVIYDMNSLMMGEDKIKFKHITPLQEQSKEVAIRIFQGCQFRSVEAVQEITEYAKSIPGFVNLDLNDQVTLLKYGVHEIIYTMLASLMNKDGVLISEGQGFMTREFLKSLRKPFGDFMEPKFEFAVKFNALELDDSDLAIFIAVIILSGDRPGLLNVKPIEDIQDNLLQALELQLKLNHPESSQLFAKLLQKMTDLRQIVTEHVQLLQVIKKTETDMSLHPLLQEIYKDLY
Put plainly: Gal4-hPPARγ transient transfection reporter assay in Cos cells. In kind it is cell-based. The note with it: luciferase reporter, 24 hours with compound, scale 1-5, read-out: Gal-4 hPPAR γ EC50 (scaled number). A digest of the protocol: as §1

Series [1] in a line: Metabolism studies using human liver microsomal preparations. It is filed as in vitro ADME. As to conditions: for HLMs t1/2 (min) / half-life: pooled human liver microsomes, with NADPH (CYP system active), 37° C.; for HLMs Predominant Enzyme: comparison of half life with and without NADPH: Esterase, CYP or Mixed; for half-life: pH 7.4, read-out: HLMs t1/2. The protocol: Compounds were incubated in pooled human liver microsomes (HLMs) in the presence or absence of an NADPH-generating system. NADPH is required for the activity of cytochrome P450 (CYP) and other oxidative enzymes present in HLMs, but not for esterase activity. An additional incubation was carried out in the absence of HLM to assess compound stability. The disappearance of parent and the appearance of the corresponding acid metabolite were monitored over the time course of the incubations using LC-MS/MS.
A stock solution (20 mM) of each proprietary compound in DMSO was prepared and store at −20° C. until needed. A working stock solution (0.2 mM) was prepared for each proprietary compound by adding an aliquot of the stock solution (10 μL) to acetonitrile (990 μL).
An aliquot of the HLM solution was removed from the −80° C. freezer and placed on ice. Tris Buffer (50 mM, pH 7.4) containing MgCl2 (hexahydrate, 5 mM) was pre-incubated in a 37° C. water bath. A set of Eppendorf microfuge tubes (1.5 mL) was appropriately labeled. To each tube was added Tris buffer with or without the NADPH generating system. An aliquot of pooled HLMs was added to all the incubations except those that were the buffer control.
Tubes were preincubated for 5 min in a shaking incubator bath (37° C., 900 rpm) and the reaction was initiated by adding an aliquot of the proprietary working solution (5 μL). The additions were timed carefully in order to coordinate the sample collections below. A small aliquot (50 μL) was removed at […] and delivered to the respective tubes containing dextrorphan (100 μL of 0.5 μg/mL solution) in dissolved in methanol or acetonitrile. The samples were centrifuged at 14000 g for 15 minutes at 4° C. The supernatant was transferred to clean labeled HPLC injection vials and stored at −80° C. until analyzed. An aliquot of the supernatant […] was added to water (75 μL), mixed and injected onto the LC-MS/MS system for analysis.
“HLM t1/2” represents the observed half life of the compound under conditions that included NADPH, i.e., the CYP system was active. Comparison to the half life of the test article under (−)NADPH conditions, the enzyme predominant ly responsible for the metabolism of the test article. […] Where roughly equal metabolism is seen by each enzyme system, “mixed” is noted in the “Predominant enzyme” column.
Background: Microsomes from liver hold many membrane-bound enzymes, among them those of drug oxidation.

[2] abbreviates: pig liver esterase in human plasma protein solution, read-out: Pig Liver Esterase (t1/2 min.) (+) Plasma.
The mark [3] stands for this setting: pig liver esterase in phosphate buffer pH 7.4, no plasma, read-out: Pig Liver Esterase (t1/2 min.) (−) Plasma.
Where [4] appears, read: pig liver esterase in human plasma protein solution.

The values below come from US20100184815A1 (priority 2008, published 2010).

Molecules are shown by their SMILES. Where two headings read alike, the source gives them in different places.

For the compound `CCCn1c(C(C)OC(=O)c2ccc(SC(C)(C)C(=O)O)cc2)nn(Cc2ccc(C)cc2)c1=O` (centres unmarked) [Compound 199, 2-methyl-2-(4-((1-(1-(4-methylbenzyl)-5-oxo-4-propyl-4,5-dihydro-1H-1,2,4-triazol-3-yl)ethoxy)carbonyl)phenylthio)propanoic acid], the EC50 on Gal-4 hPPARβ/δ was greater than 1000 nM; at Gal-4 hPPARα, 1 to 50 nM; on Gal-4 hPPARγ, greater than 1000 nM. Besides, the half-life at 4.9 µM with pig liver esterase (setting [2]) and with pig liver esterase (setting [3]) was greater than 120 min throughout. Moreover, the “HLMs t1/2 (min)” value in series [1] is “Stable”.
In the case of `CCCn1c(COC(=O)c2ccc(OC(C)(C)C(=O)O)cc2)nn(Cc2ccc(C(=O)O[C@H](C)C(F)(F)C(F)(F)F)cc2)c1=O` [Compound 174, (R)-2-methyl-2-(4-(((5-oxo-1-(4-((3,3,4,4,4-pentafluorobutan-2-yloxy)carbonyl)benzyl)-4-propyl-4,5-dihydro-1H-1,2,4-triazol-3-yl)methoxy)carbonyl)phenoxy)propanoic acid], the half-life at 4.9 µM with pig liver esterase (setting [2]) was determined as 17 min. In addition, in the series with pig liver esterase (setting [3]), the half-life at 4.9 µM was less than 5 min. Further, in series [1], the “HLMs Predominant Enzyme” value is listed as “Esterase” and the half-life was 10 min.
Take `CC(C)c1ccc(-n2nncc2COC(=O)c2ccc(SC(C)(C)C(=O)O)cc2)cc1` [Compound 59, 2-(4-(((1-(4-isopropylphenyl)-1H-1,2,3-triazol-5-yl)methoxy)carbonyl)phenylthio)-2-methylpropanoic acid]: the figures for the half-life at 4.9 µM with pig liver esterase (setting [2]) and in the series with pig liver esterase (setting [3]) were 44 min and 15 min, respectively. For the same compound, in series [1], the “HLMs Predominant Enzyme” value was “Esterase”. In addition, the half-life in series [1] worked out at 30 min.
Regarding `CCCn1nc(Cc2ccc(C)cc2)cc1COC(=O)c1ccc(OC(C)(C)C(=O)O)cc1` [Compound 54, 4-(1-Carboxy-1-methyl-ethoxy)-benzoic acid 5-(4-methyl-benzyl)-2-propyl-2H-pyrazol-3-ylmethyl ester], the values for the half-life at 4.9 µM in the series with pig liver esterase (setting [2]) and with pig liver esterase (setting [3]) were greater than 120 min and 3 min, respectively. Moreover, the “HLMs Predominant Enzyme” value in series [1] is given as “Esterase”. The half-life in series [1] worked out at 30 min.
For `CCCCCCCCn1c(COC(=O)Cc2ccc(OC(C)(C)C(=O)O)cc2)nn(Cc2ccc(C)cc2)c1=O` [Compound 012, 2-methyl-2-(4-(2-((1-(4-methylbenzyl)-4-octyl-5-oxo-4,5-dihydro-1H-1,2,4-triazol-3-yl)methoxy)-2-oxoethyl)phenoxy)propanoic acid], the “Pig Liver Esterase (t1/2 min.) (+) Plasma” value (shortened to “Pig Liver Esterase”) in the series with pig liver esterase (setting [4]) was “Stable”. Moreover, the half-life at 4.9 µM in the series with pig liver esterase (setting [3]) came out at 12 min. For the same compound, in series [1], the “HLMs t1/2 (min)” value was “Stable”.
Turning to `C[C@@H](Cc1cn(Cc2ccc(C(F)(F)F)cc2)nn1)OC(=O)c1ccc(SC(C)(C)C(=O)O)cc1` [Compound 147, 4-(1-Carboxy-1-methyl-ethylsulfanyl)-benzoic acid (S)-1-methyl-2-[1-(4-trifluoromethyl-benzyl)-1H-1,2,3-triazol-4-yl]-ethyl ester], the “Pig Liver Esterase” value with pig liver esterase (setting [4]) is listed as “Stable”. Further, the half-life at 4.9 µM in the series with pig liver esterase (setting [3]) came out at 77 min. In series [1], the “HLMs Predominant Enzyme” value is on record as “Mixed” and the half-life turned out to be 73 min.
Consider `CCCCCCn1c(COC(=O)Cc2ccc(OC(C)(C)C(=O)O)cc2)nn(Cc2ccc(C)cc2)c1=O` [Compound 014, 2-(4-(2-((4-hexyl-1-(4-methylbenzyl)-5-oxo-4,5-dihydro-1H-1,2,4-triazol-3-yl)methoxy)-2-oxoethyl)phenoxy)-2-methylpropanoic acid], for which, in the series on pig liver esterase (setting [4]), the “Pig Liver Esterase” value was “Stable”. The half-life at 4.9 µM with pig liver esterase (setting [3]) is 19 min. Further, the “HLMs t1/2 (min)” value in series [1] was “Stable”.
As to `CCCn1nc(Cc2ccc(C)cc2)cc1COC(=O)c1ccc(SC(C)(C)C(=O)O)cc1` [Compound 55, 4-(1-Carboxy-1-methyl-ethylsulfanyl)-benzoic acid 5-(4-methyl-benzyl)-2-propyl-2H-pyrazol-3-ylmethyl ester], the half-life at 4.9 µM in the series on pig liver esterase (setting [2]) was 16 min; in the series on pig liver esterase (setting [3]), less than 1 min. Also, the “HLMs Predominant Enzyme” value in series [1] is “Esterase”. For the same compound, the half-life in series [1] amounted to 5 min.
For the compound `Cc1ccc(Cn2nncc2COC(=O)c2ccc(OC(C)(C)C(=O)O)cc2)cc1` [Compound 63, 2-methyl-2-(4-(((1-(4-methylbenzyl)-1H-1,2,3-triazol-5-yl)methoxy)carbonyl)phenoxy)propanoic acid], in the series on pig liver esterase (setting [4]), the “Pig Liver Esterase” value was “Stable”. The half-life at 4.9 µM with pig liver esterase (setting [3]) came to 120 min. In addition, in series [1], the “HLMs Predominant Enzyme” value was “Stable” and the “HLMs t1/2 (min)” value is “Stable”.
Consider `C[C@@H](Cc1cn(Cc2ccc(C(C)(C)C)cc2)nn1)OC(=O)c1ccc(SC(C)(C)C(=O)O)cc1` [Compound 133, 4-(1-Carboxy-1-methyl-ethylsulfanyl)-benzoic acid (S)-2-[1-(4-tert-butyl-benzyl)-1H-1,2,3-triazol-4-yl]-1-methyl-ethyl ester], for which the EC50 is greater than 1000 nM on Gal-4 hPPARβ/δ, 1 to 50 nM on Gal-4 hPPARα and greater than 1000 nM on Gal-4 hPPARγ. For the same compound, in series [1], the “HLMs Predominant Enzyme” value is given as “Mixed”. Also, the half-life in series [1] came to 29 min.
Turning to `Cc1ccc(-n2cc(COC(=O)c3ccc(OC(C)(C)C(=O)O)cc3)c(-c3ccccc3)n2)cc1` [Compound 17, 2-methyl-2-(4-(((3-phenyl-1-p-tolyl-1H-pyrazol-4-yl)methoxy)carbonyl)phenoxy)propanoic acid], the values for the EC50 on Gal-4 hPPARβ/δ, on Gal-4 hPPARα and at Gal-4 hPPARγ were 1 to 50 nM, 51 to 200 nM and 201 to 999 nM, respectively.
